Data published in US20090192327A1, “METHODS AND COMPOSITIONS FOR INHIBITING BIOFILMS” (Sequoia Sciences, Inc., priority 2004, published 2009).
“Also recorded” adds a separate entry of the source.

How the values were obtained:
[1] = tested on: Pseudomonas aeruginosa; test: Minimum inhibitory concentration (NCCLS broth microdilution); type: cell-based; settings: LB media with 0.2% glucose, 35° C. for 20-24 hours
Method: The minimum inhibitory concentrations (MICs) for several of the specific biofilm inhibitors described herein were determined against several targets, including P. aeruginosa, E. coli, and Staphylococcus aureus. The MICs of the biofilm inhibitors were measured using the reference broth microdilution method recommended by the National Committee for Clinical Laboratory Standards (NCCLS). […] In each assay, positive and negative controls were employed, wherein the positive control included an antimicrobial agent with a known potency range that was used to ensure proper assay performance. The negative control, generally, included the solvent in which the test compounds were dissolved. In this example, the wells correlating to the negative controls included ethanol (without any biofilm inhibitors). […] Thus, each well contained a final volume of approximately 200 μl (not including the volume of the concentrated inhibitor). […] After bacterial inoculation and loading of test and control samples, the plate was incubated in an ambient air environment at 35° C. for 20-24 hours. The plate was subsequently rinsed, stained, and analyzed in accordance with the procedures described in Example 1. […] The minimum inhibitory concentrations were calculated as the lowest inhibitor concentration at which biofilm inhibition was observed.

[2] = tested on: Pseudomonas aeruginosa; test: Microtiter plate biofilm inhibition assay (crystal violet); type: cell-based; settings: 10 μg/ml, LB media with 0.2% glucose, 24 hours at room temperature, average of three wells
Method: A microtiter plate assay was used to quantitatively measure the effect each tested compound had on the ability of bacteria to form a biofilm. In this example, a concentrated solution of each compound tested was loaded separately into three separate wells of a polystyrene microtiter plate. In addition, each assay included triplicate wells correlating to negative and positive controls. For the positive controls, biofilm inhibitors of known activity were used, whereas no inhibitors were added to wells correlating to negative controls. […] Thus, each well contained a final volume of approximately 200 μl (not including the volume of the concentrated inhibitor). […] The microtiter plates were then placed on a shaker for 24 hours at room temperature. After the 24 hour incubation period, the microtiter plate was removed from the shaker, rinsed, and stained. During the rinsing step, the test compound, media, and bacterial inoculum solution was drained from the plate, approximately 300 μl of 0.1M phosphate buffered saline (PBS) was added to each well, which was subsequently drained from the plate. The rinsing step removed any suspended cells from the assay. 0.1% crystal violet stain was added to each well for approximately 20 minutes. Next, the crystal violet solution was drained from the microtiter plate. The plate was rinsed with PBS as described above four (4) times to remove any excess stain from the plate. Following the PBS rinsing steps, the plate was eluted with 250 μl/well of ethanol, which improved the detection of the stain. The plate was immediately analyzed spectrophotometrically at 540 nm using a microtiter plate reader. The inhibitory effect each compound had on the bacteria's ability to form a biofilm on the surface of each well was determined as follows: The absorbance values observed for each set of three (3) wells correlating with a test compound or control were averaged. The average absorbance value for each test compound was compared to the average absorbance value of the negative control (the positive control was employed to verify proper assay function). In general, biofilm inhibition activity is inversely proportional to absorbance values, whereby, for example, low absorbance values correlate with significant inhibition activity and high absorbance values correlate with small or no inhibition activity. The approximate percent inhibition observed for each compound was calculated by comparing the average absorbance value for each test compound to the average absorbance value for the negative controls. Table 2 summarizes the average percent inhibition observed for the tested compounds listed against biofilms generated by Pseudomonas aeruginosa.

[3] = tested on: E. coli JM109; test: Biofilm inhibition assay in 96 well plates (adapted from Pratt and Kolter); type: cell-based, Escherichia coli; settings: 10 μg/ml, LB with or without 0.2% glucose, 37° C. for two days without shaking
Method: Such compounds were evaluated using an assay adapted from a protocol reported in Pratt and Kolter, 1998, Molecular Microbiology, 30: 285-293; and Li et al., 2001, J. Bacteriol., 183: 897-908. […] Negative controls included only ethanol (the solvent for each test compound). To quantify the biofilm mass, the suspension culture was removed, the biofilm was washed three times with water, and then stained with 0.1% crystal violet for 20 minutes. Next, the plates were washed three times with water and analyzed by spectrophotometry at 540 nm to quantify the biofilm mass (by comparing the biofilm mass in the wells containing a test compound to that of the control wells).

[4] = tested on: Staphylococcus epidermidis; test: Biofilm inhibition assay against Staphylococcus epidermidis; type: cell-based; settings: final concentration of 10 μg/ml, read-out: Inhibition of biofilm formation by S. epidermidis
[5] = tested on: Escherichia coli; test: Minimum inhibitory concentration (NCCLS broth microdilution); type: cell-based; settings: LB media with 0.2% glucose, 35° C. for 20-24 hours
Method: (§1) The minimum inhibitory concentrations (MICs) for several of the specific biofilm inhibitors described herein were determined against several targets, including P. aeruginosa, E. coli, and Staphylococcus aureus. The MICs of the biofilm inhibitors were measured using the reference broth microdilution method recommended by the National Committee for Clinical Laboratory Standards (NCCLS).
(§2) […]. The negative control, generally, included the solvent in which the test compounds were dissolved. In this example, the wells correlating to the negative controls included ethanol (without any biofilm inhibitors).
(§3) In this example, 150 μl of sterile media was added to each well (LB media with 0.2% glucose), along with appropriate volumes of concentrated solutions of the inhibitors to be tested, followed by 50 μl of bacterial inoculum. Thus, each well contained a final volume of approximately 200 μl (not including the volume of the concentrated inhibitor). […]. The plate was subsequently rinsed, stained, and analyzed in accordance with the procedures described in Example 1.
(§4) Tables 7, 8, and 9 summarize the data observed and, specifically, the MICs calculated for the several compounds referenced therein against P. aeruginosa, E. coli, and S. aureus, respectively. The minimum inhibitory concentrations were calculated as the lowest inhibitor concentration at which biofilm inhibition was observed.

[6] = tested on: Pseudomonas aeruginosa strain PAO 1; test: Rotating disk reactor biofilm test in combination with tobramycin; type: cell-based; settings: 48 hours biofilm; compound 110 approximately 100 μg/mL for 24 hours; tobramycin 100 μg/mL for two hours; polystyrene coupons
Method: In this example, compound 110 was tested for biofilm inhibition with Pseudomonas aeruginosa in combination with Tobramycin. Specifically, biofilm formation of P. aeruginosa was evaluated using a standardized biofilm method with a rotating disk reactor (RDR), which is also known as “ASTM Standard Method #E-2196-02.” The rotating disk reactor consisted of a one-liter glass beaker fitted with a drain spout. The bottom of the vessel contained a magnetically driven rotor with six 1.27 cm diameter coupons constructed from polystyrene. The rotor consisted of a star-head magnetic stir bar upon which a disk was affixed to hold the coupons. The vessel (with the stir bar) was placed on a stir plate and rotated to provide fluid shear. A nutrient solution (AB Trace Medium with 0.3 mM glucose, see Table 5 below for specific formulation) was added through a stopper in the top of the reactor at a flow rate of 5 mL/min. The reactor volume was approximately 180 mL. At a volume of 180 mL, the residence time of the reactors was 36 minutes. The reactors were operated at room temperature (c.a. 26° C.). In this example, two RDRs were operated in parallel with one receiving compound 110 and the other serving as an untreated control. […] The plates were incubated for 24 hours at 37° C. before colony forming units (CFU) were determined.

[7] = tested on: human hepatocellular carcinoma cells (HepG2); test: Cytotoxicity, fluorometric detection of mitochondrial activity; type: cell-based; settings: triplicate, approximate, gross cytotoxicity
Description: Met. […] Chlorpromazine (or its equivalent) was used as a positive control.

[8] = tested on: E. coli; test: Dose/response biofilm assay against E. coli (crystal violet, 540 nm); type: cell-based, Escherichia coli
Method: In this example, dose/response characteristics of the biofilm inhibitors were measured using compound 108. The assay employed to measure such dose/response characteristics was adapted from a reported protocol. See Pratt and Kolter, 1998, Molecular Microbiology, 30: 285-293; and Li et al., 2001, J. Bacteriol., 183: 897-908.
The biofilm inhibitory effect of compound 108 was then evaluated at different times and concentrations. In the first assay, compound 108 was added to the test system at the same time as the E. coli inoculum. Specifically, compound 108 was added to the system at final concentrations of 0, 1, 2, 5, and 10 μg/mL along with 50 μL of E. coli inoculum and 150 μL of LB media to measure its ability to inhibit the formation of biofilms. In a second assay, compound 108 was added after a biofilm had formed, i.e., 24 hours after the assay plate was inoculated with E. coli in LB media. In a third assay, compound 108 was tested at 0, 1, 2, 5, 10, and 15 μg/mL against E. coli in LB media with 0.2% glucose (whereby compound 108 was introduced into the system at the time of inoculation).
The suspension culture in each of the assay systems described above was drained from the plate and the residual biofilm, if any, was washed three (3) times with water. A solution containing 0.1% crystal violet was added to each well and maintained thereon for approximately 20 minutes. Following the staining procedure, each well was rinsed three (3) times with water. Each well was then analyzed spectrophotometrically in a microtiter plate reader at 540 nm to quantitate approximate biofilm mass and inhibition of biofilm growth by comparison to a negative control, which included inoculum and growth media alone.

[9] = tested on: E. coli; test: Effect on viability/growth of E. coli (absorbance 620 nm); type: cell-based, Escherichia coli; settings: 1 to 15 μg/mL; LB media; 37° C. for two days; FIG. 1
Method: The dose/response behavior of compound 108 was tested against E. coli in LB media with and without 0.2% glucose. First, the effect of compound 108 on the viability of E. coli was measured. Compound 108 was added to a 96-well microtiter plate in triplicate wells to final concentrations of 0, 1, 2, 5, 10, and 15 μg/mL. Compound 108 was added to each well on the plate along with 50 μL of E. coli inoculum and 150 μL of LB and incubated at 37° C. for two days without shaking. After incubation, the plate was analyzed spectrophotometrically at 620 nm to quantitate the approximate levels of E. coli growth. The absorbance values observed for the test wells were averaged and compared to a negative control, i.e., wells containing no biofilm inhibitor.

[10] = tested on: Staphylococcus aureus; test: Minimum inhibitory concentration (NCCLS broth microdilution); type: cell-based; settings: LB media with 0.2% glucose; 35° C. for 20-24 hours
Method: as §1, §2, §3, §4

MIC ([1]; Pseudomonas aeruginosa, read-out: MIC (μg/mL) - Pseudomonas aeruginosa)	MIC ([5]; Escherichia coli, read-out: MIC (μg/mL) - Escherichia coli)	Structure (SMILES)	inhibition at 10 µg/mL ([2]; Pseudomonas aeruginosa)	inhibition at 10 µg/mL ([3]; Escherichia coli, JM 109, 48 h)	inhibition at 10 µg/mL [4]	CFU (in log 10) [6]	Inhibition at 30 μM - Hep G2 cells [7]	Prevention of biofilm growth at 15 μg/mL ([8]; 15 μg/mL, E. coli in LB, added with inoculum, 0 through 50 hours of incubation, FIG. 2)	Concentration as low as which effective at reducing biofilm mass ([8]; E. coli in LB with 0.2% glucose, added along with the inoculum, FIG. 5)	Concentration as low as which reduces existing biofilm mass ([8]; E. coli in LB, added 24 hours after inoculation, FIG. 4)	Concentration as low as which effective in preventing biofilm formation ([8]; E. coli in LB, added along with the inoculum, FIGS. 2 and 3)	Estimated mass of existing biofilm after 24 hours of incubation with compound ([8]; each of the concentrations tested (1, 2, 5, 10 μg/mL), added 24 hours after inoculation, approximately 50 hours post inoculation, FIG. 4)	MIC (μg/mL) - Pseudomonas aeruginosa [1]	Biofilm Inhibition- Pseudomonas aeruginosa [2]	Biofilm Inhibition- Escherichia coli [3]	Effect on growth of E. coli [9]	MIC (μg/mL) - Escherichia coli [5]	MIC (μg/mL) - Staphylococcus aureus [10]
> 128 µg/mL	> 10 µg/mL	C[C@H]1[C@H](C)CC[C@]2(C(=O)O)CC[C@]3(C)C(=CC[C@@H]4[C@@]5(C)CC[C@H](O)C(C)(C)[C@@H]5CC[C@]43C)[C@H]12 [Compound 110, ursolic acid]	35%	80%	~25%	7.1 CFU (in log 10)	2%											
		C[C@@H]1CC[C@]2(C(=O)O)CCC3(C)C(=CCC4C5(C)C[C@@H](O)[C@H](O)C(C)(C)C5CCC43C)C2[C@H]1C (stereo partly drawn) [Compound 108]						almost completely prevent biofilm growth	1 µg/mL	1 µg/mL	1 µg/mL	decreased significantly	>10 µg/mL	52%	74%	did not inhibit the growth; also recorded: does not inhibit the growth	>15 µg/mL	>32 µg/mL
